In patent publication US11242333B2, “Inhibitors of plasma kallikrein” (Kalvista Pharmaceuticals Limited, priority 2013, dated 2022):

Tests used:
Human plasma kallikrein = Human plasma kallikrein (Homo sapiens (Human), UniProt P03952); assay: Determination of the IC50 for plasma kallikrein; format: biochemical; conditions: 37° C., fluorogenic substrate H-DPro-Phe-Arg-AFC; read-out: IC50 (human PKal)
Description: Determination of the IC50 for plasma kallikrein
(§1) Plasma kallikrein inhibitory activity in vitro was determined using standard published methods (see e.g. Johansen et al., Int. J. Tiss. Reac. 1986, 8, 185; Shori et al., Biochem. Pharmacol., 1992, 43, 1209; Stürzebecher et al., Biol. Chem. Hoppe-Seyler, 1992, 373, 1025). Human plasma kallikrein (Protogen) was incubated at 37° C. with the fluorogenic substrate H-DPro-Phe-Arg-AFC and various concentrations of the test compound. Residual enzyme activity (initial rate of reaction) was determined by measuring the change in […] at 410 nm and the IC50 value for the test compound was determined.

Human KLK1 = Human KLK1 (Homo sapiens (Human), UniProt P06870); assay: Determination of the IC50 for KLK1; format: biochemical; conditions: 37° C., fluorogenic substrate H-DVal-Leu-Arg-AFC
Description: Determination of the IC50 for KLK1
as §1, with “KLK1” for “Plasma kallikrein”, “KLK1 (Callbiochem)” for “plasma kallikrein (Protogen)”, “H-DVal-Leu-Arg-AFC” for “H-DPro-Phe-Arg-AFC”

Sequence of Human plasma kallikrein (P03952 391-638): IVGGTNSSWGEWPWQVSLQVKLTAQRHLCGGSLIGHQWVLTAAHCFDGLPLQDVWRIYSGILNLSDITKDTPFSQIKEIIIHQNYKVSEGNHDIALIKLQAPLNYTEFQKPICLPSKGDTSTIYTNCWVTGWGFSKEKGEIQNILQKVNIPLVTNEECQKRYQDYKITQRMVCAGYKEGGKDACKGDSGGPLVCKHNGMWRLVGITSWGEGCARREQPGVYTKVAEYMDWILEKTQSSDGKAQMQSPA
Sequence of Human plasma kallikrein (P03952 20-390 partner): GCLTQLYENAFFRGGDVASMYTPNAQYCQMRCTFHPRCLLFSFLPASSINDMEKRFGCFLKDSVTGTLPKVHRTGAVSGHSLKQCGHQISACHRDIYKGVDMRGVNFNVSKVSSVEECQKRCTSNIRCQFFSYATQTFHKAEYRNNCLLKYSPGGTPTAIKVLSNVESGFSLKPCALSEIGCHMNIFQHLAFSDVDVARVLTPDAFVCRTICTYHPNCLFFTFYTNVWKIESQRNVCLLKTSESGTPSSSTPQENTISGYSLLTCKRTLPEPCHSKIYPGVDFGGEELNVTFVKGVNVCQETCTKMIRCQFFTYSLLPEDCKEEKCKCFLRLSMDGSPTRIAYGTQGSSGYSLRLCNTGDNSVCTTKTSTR
Sequence of Human KLK1 (P06870 25-262): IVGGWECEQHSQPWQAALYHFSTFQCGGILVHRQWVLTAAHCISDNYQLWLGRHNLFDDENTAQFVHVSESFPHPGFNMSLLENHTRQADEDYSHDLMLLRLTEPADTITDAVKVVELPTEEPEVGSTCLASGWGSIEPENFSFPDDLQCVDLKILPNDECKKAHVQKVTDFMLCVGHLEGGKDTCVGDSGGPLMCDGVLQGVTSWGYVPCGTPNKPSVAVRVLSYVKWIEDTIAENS

Compound | IC50 (Human plasma kallikrein) | IC50 (Human KLK1)
Cc1cnn(Cc2ccc(Cc3cncc(C(=O)NCc4cnc5[nH]ccc5c4)c3)cc2)c1 [Example 2, 5-({4-[(4-Methylpyrazol-1-yl)methyl]phenyl}methyl)-N-{7H-pyrrolo[2,3-b]pyridin-5-ylmethyl}pyridine-3-carboxamide] | 216 nM | 
O=C(NCc1cnc2[nH]ccc2c1)c1ccc(=O)n(Cc2ccc(Cn3ccccc3=O)cc2)c1 [Example 6, 6-Oxo-1-({4-[(2-oxopyridin-1-yl)methyl]phenyl}methyl)-N-{7H-pyrrolo[2,3-b]pyridin-5-ylmethyl}pyridine-3-carboxamide] | 580 nM | 27800 nM
Cc1cnn(Cc2ccc(Cc3cncc(C(=O)NCc4ccc5c(N)nccc5c4)c3)cc2)c1 [Example 1] | 3.86 nM | 
Cc1cnn(Cc2ccc(Cc3ccnc(C(=O)NCc4cnc5[nH]ccc5c4)c3)cc2)c1 [Example 4, 4-({4-[(4-Methylpyrazol-1-yl)methyl]phenyl}methyl)-N-{7H-pyrrolo[2,3-b]pyridin-5-ylmethyl}pyridine-2-carboxamide] | 6610 nM | 
